In patent publication US8486996B2, “Aroylfuranes and aroylthiophenes” (Basilea Pharmaceutica AG, priority 2006, dated 2013):
Like-named read-outs stand apart in the source and are kept apart here.

Experiments:
Assay type in all cases: cell-based
[1] = MTS proliferation assay (72 h read-out); details: MRC5 cells
Outline: (§1)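 Viability was read by MTS absorbance at 492 nm after 3 h with reagent. Before that, cells plated a day earlier at 1.5×10^3–10^4 per well had been incubated with test compound at final concentrations of 0.001–10 μM for 72 h; activity is given as category scores A–D.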

[2] = tested on: tumor cells; assay: MTS proliferation assay (72 h read-out)
Outline: as §1

[3] = Mitochondrial membrane potential, JC-1 (read-out 48 h); details: PBL, JC-1, 48 h
Outline: (§2)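 Tumor cells were treated with test compounds (adherent cells after 24 h of attachment, suspension cells immediately), medium holding up to 5% DMSO. After 48 h, JC-1 (2-5 μg/ml in added medium) was applied for 30 min. Fluorescence microscopy (FITC/TRITC filters) scored the fraction of cells with dissipated mitochondrial membrane potential as categories A-D.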

[4] = tested on: tumor cells; assay: as above; details: JC-1, 48 h
Outline: as §2

[5] = Hoechst 33342 nuclear staining (48 h read-out)
Outline: (§3)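 Adherent cells pre-spread 24 h before dosing, suspension cells dosed at seeding; compounds at 0.001 μM-10 μM final, 48 h at culture conditions. Hoechst 33342 (2-5 μg/ml) added for 30 min, then fluorescence microscopy scoring of apoptotic nuclear fraction and apoptosis-specific morphology, reported as scores A-D.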

[6] = tested on: tumor cells; assay: Hoechst 33342 nuclear staining (48 h read-out)
Outline: as §3

[7] = HT1080 cells, read-out: MTS proliferation assay IC50, HT1080
[8] = HeLa cells, read-out: MTS proliferation assay IC50, HeLa
[9] = Jily cells, read-out: MTS proliferation assay IC50, Jily
[10] = Jurkat cells, read-out: MTS proliferation assay IC50, Jurkat
[11] = HeLa cells, read-out: Mitochondrial membrane potential (read-out 48 h) HeLa
[12] = Jily cells, read-out: Mitochondrial membrane potential (read-out 48 h) Jily
[13] = Jurkat cells, read-out: Mitochondrial membrane potential (read-out 48 h) Jurkat
[14] = MCF7 cells, read-out: Mitochondrial membrane potential (read-out 48 h) MCF7
[15] = MRC5 cells, read-out: Hoechst 33342 nuclear staining EC50, MRC5
[16] = PBL, read-out: Hoechst 33342 nuclear staining EC50, PBL
[17] = HeLa cells, read-out: Hoechst 33342 nuclear staining EC50, HeLa
[18] = Jily cells, read-out: Hoechst 33342 nuclear staining EC50, Jily
[19] = Jurkat cells, read-out: Hoechst 33342 nuclear staining EC50, Jurkat

Compound	IC50 [2, 7]	IC50 [2, 8]	IC50 [2, 9]	IC50 [2, 10]	EC50 [3]	EC50 [4, 11]	EC50 [4, 12]	EC50 [4, 13]	EC50 [4, 14]	EC50 [5, 16]	EC50 [6, 17]	EC50 [6, 18]	EC50 [6, 19]	IC50 [1]	EC50 [5, 15]
CCOc1ccc(F)cc1C(=O)c1cc2cc(OCc3ccccc3)ccc2o1 [Example 63]	> 1000 nM	> 1000 nM	> 1000 nM	> 1000 nM	> 1000 nM	> 1000 nM	> 1000 nM	> 1000 nM	> 1000 nM	> 1000 nM	> 1000 nM	> 1000 nM	> 1000 nM	> 1000 nM	> 1000 nM
C=CCOc1ccc2oc(C(=O)c3cc(F)ccc3OCC)cc2c1 [Example 67]	100 to 1000 nM	10 to 100 nM	< 10 nM		> 1000 nM	100 to 1000 nM	10 to 100 nM	10 to 100 nM	> 1000 nM	> 1000 nM	100 to 1000 nM	10 to 100 nM	10 to 100 nM	10 to 100 nM	> 1000 nM
CCOc1ccc(F)cc1C(=O)c1cc2cc(OC(C)C)ccc2o1 [Example 68]	10 to 100 nM	10 to 100 nM	10 to 100 nM		> 1000 nM	> 1000 nM	100 to 1000 nM	100 to 1000 nM	> 1000 nM	> 1000 nM	100 to 1000 nM	100 to 1000 nM	100 to 1000 nM	10 to 100 nM	100 to 1000 nM
CCOc1ccc(F)cc1C(=O)c1cc2cc(OCOC)ccc2o1 [Example 69]	100 to 1000 nM	100 to 1000 nM	100 to 1000 nM		> 1000 nM	> 1000 nM	100 to 1000 nM	100 to 1000 nM	> 1000 nM	> 1000 nM	100 to 1000 nM	100 to 1000 nM	100 to 1000 nM	100 to 1000 nM	> 1000 nM
CCOc1ccc(F)cc1C(=O)c1cc2cc(OCCOC)ccc2o1 [Example 70]	100 to 1000 nM	100 to 1000 nM	100 to 1000 nM		> 1000 nM	> 1000 nM	100 to 1000 nM	100 to 1000 nM	> 1000 nM	> 1000 nM	100 to 1000 nM	100 to 1000 nM	100 to 1000 nM	100 to 1000 nM	100 to 1000 nM
CCOc1ccc(F)cc1C(=O)c1cc2cc(OCCN(C)C)ccc2o1 [Example 71]	> 1000 nM	> 1000 nM	> 1000 nM		> 1000 nM	> 1000 nM	> 1000 nM	> 1000 nM	> 1000 nM	> 1000 nM	> 1000 nM	> 1000 nM	> 1000 nM	> 1000 nM	> 1000 nM
CCOc1ccc(F)cc1C(=O)c1cc2cc(OC(=O)N(C)C)ccc2o1 [Example 72]	100 to 1000 nM	100 to 1000 nM	100 to 1000 nM		> 1000 nM	> 1000 nM	100 to 1000 nM	100 to 1000 nM	> 1000 nM	> 1000 nM	> 1000 nM	100 to 1000 nM	100 to 1000 nM	100 to 1000 nM	> 1000 nM
CCOc1ccc(F)cc1C(=O)c1cc2cc(Oc3ccccn3)ccc2o1 [Example 73]	100 to 1000 nM	100 to 1000 nM	100 to 1000 nM		> 1000 nM	100 to 1000 nM	100 to 1000 nM	100 to 1000 nM	> 1000 nM	> 1000 nM	100 to 1000 nM	100 to 1000 nM	100 to 1000 nM	100 to 1000 nM	100 to 1000 nM

Now from value to molecule, other results behind:

IC50 [2, 7]	IC50 [2, 8]	IC50 [2, 9]	IC50 [2, 10]	EC50 [3]	EC50 [4, 11]	EC50 [4, 12]	EC50 [4, 13]	EC50 [4, 14]	EC50 [5, 16]	EC50 [6, 17]	EC50 [6, 18]	EC50 [6, 19]	Compound	IC50 [1]	EC50 [5, 15]
10 to 100 nM	10 to 100 nM	< 10 nM	< 10 nM	> 1000 nM	100 to 1000 nM	10 to 100 nM	10 to 100 nM	100 to 1000 nM	> 1000 nM	10 to 100 nM	10 to 100 nM	10 to 100 nM	CCOc1ccc(F)cc1C(=O)c1cc2cc(COC)ccc2o1 [Example 57]	10 to 100 nM	100 to 1000 nM
10 to 100 nM	100 to 1000 nM	10 to 100 nM	10 to 100 nM	> 1000 nM	> 1000 nM	100 to 1000 nM	10 to 100 nM	> 1000 nM	> 1000 nM	100 to 1000 nM	100 to 1000 nM	10 to 100 nM	CCOc1ccccc1C(=O)c1oc2ccc([N+](=O)[O-])cc2c1N [Example 59]	100 to 1000 nM	> 1000 nM
10 to 100 nM	100 to 1000 nM	10 to 100 nM	10 to 100 nM	> 1000 nM	100 to 1000 nM	10 to 100 nM	10 to 100 nM	> 1000 nM	> 1000 nM	100 to 1000 nM	10 to 100 nM	10 to 100 nM	COc1ccc2oc(C(=O)c3ccccc3OCC(F)(F)F)c(N)c2c1 [Example 60]	100 to 1000 nM	> 1000 nM
< 10 nM	10 to 100 nM	< 10 nM	< 10 nM	> 1000 nM	10 to 100 nM	< 10 nM	< 10 nM	> 1000 nM	> 1000 nM	10 to 100 nM	< 10 nM	< 10 nM	CCOc1ccc(F)cc1C(=O)c1oc2ccc(C)cc2c1N [Example 62]	< 10 nM	> 1000 nM
< 10 nM	10 to 100 nM	< 10 nM	< 10 nM	> 1000 nM	10 to 100 nM	10 to 100 nM	< 10 nM	> 1000 nM	> 1000 nM	10 to 100 nM	10 to 100 nM	< 10 nM	CCOc1ccc(F)cc1C(=O)c1cc2cc(OC(C)=O)ccc2o1 [Example 65]	< 10 nM	100 to 1000 nM
